Measurements from patent EP0007525A1, “2-(4-Aminopiperidino)-3.4-dihydroquinoline derivatives, processes for their preparation, pharmaceutical compositions containing them and their use” (HOECHST AKTIENGESELLSCHAFT, priority 1978, dated 1980).

Tests used:
Format in all cases: in vivo
narkosierten Hund = experiment: Blood pressure lowering in the anaesthetised dog (pentobarbital sodium), i.v. administration; details: 1 mg/kg intravenous; for Blutdrucksenkung: significant lowering; for Dauer der Blutdrucksenkung: time over which lowering of at least 20 mm persists
Description: (§1) 1)Die blutdrucksenkende Wirkung wurde am narkosierten Hund und an der Hochdruckratete bestimmt.
Hunde werden mit Pentobarbital-Natrium (^(R)Nembutal) (35 mg/kg i.p.) narkotisiert, die Prüfsubstanz in Dosen von 0,5-5 mg/kg. intravenös appliziert und die Blutdrucksenkung laufend über 30 bis 60 Minuten, bei längerer Wirksamkeit auch länger, fortlaufend registriert. Eine signifikante Senkung von mindestens 20 mm über mindestens 30 Minuten tritt z.B. nach Applikation der Verbindungen der Beispiele Nr. 6 und 31b in Dosen von jeweils 1 mg/kg ein.

[1] = tested on: mit Strophantin vergiftete Hund; experiment: Antiarrhythmic effect in the strophanthin-poisoned dog (ventricular extrasystoles, ECG); details: dog poisoned with K-Strophanthin i.v. infusion until frequent ventricular extrasystoles; 1 mg/kg intravenous; active = arrhythmia completely abolished
Description: 2) Zur Prüfung auf antiarrythmische Wirkung wird der mit Strophantin vergiftete Hund verwendet (Methode: Laszlo Szekeres, Institute of Pharmacology, University Medical School of Szeged, Hungary, Methods for Evaluating Antiarrhytmic Agents" in Methods in Pharmacology I, New York 1971, Herausgeber A. Schwartz).

[2] = tested on: genetischen Hochdruckratte; experiment: Blood pressure lowering in the genetically hypertensive rat, oral administration; details: 15 mg/kg per os, within 18 hours
Description: as §1
Zur Prüfung an der genetischen Hochdruckratte werden die Substanzen oral verabreicht. Die Verbindung des Beispiels 31b bewirkt bei einer Dosierung von 15 mg/kg per os innerhalb von 18 Stunden einen Blutdruckabfall von 30 - 50 mm.

SMILES | Blutdrucksenkung (narkosierten Hund) | Dauer der Blutdrucksenkung (narkosierten Hund) | antiarrythmische Wirkung (Beseitigung der Rhythmusstörungen) [1] | Blutdruckabfall [2]
COc1cc2c(cc1OC)N=C(N1CCC(NC(=O)c3ccccc3)CC1)CC2 [Beispiel 6] | ≥ 20 mm | ≥ 30 Minuten |  | 
CC(C)(C)OC(=O)NC1CCN(C2=Nc3ccccc3CC2)CC1 [Beispiel 31a, 2-(4-Tert.butyloxycarbonylamino-1-piperidyl)-3,4-dihydro-chinolin] |  |  | Rhythmusstörungen völlig zu beseitigen vermochte | 
NC1CCN(C2=Nc3ccccc3CC2)CC1 [Beispiel 31b, 2-(4-Amino-1-piperidyl)-3,4-dihydrochinolin] | ≥ 20 mm | ≥ 30 Minuten |  | 30 - 50 mm
